From US20260166162A1, “CARBON CHAIN SUBSTANCE FOR REGULATING TRANSMEMBRANE TRANSPORT AND FLUIDITY OF CELL MEMBRANES, AND PREPARATION AND USE THEREOF” (priority 2022, published 2026)
Like-named read-outs stand apart in the source and are kept apart here.

What was measured:
Type in all cases: cell-based
human pancreatic β-cells = experiment: Insulin secretion from human islet β cells (ELISA of supernatant); details: 6 h
Epithelial cells = experiment: Interaction of GFP-labelled complexes with cell membrane of epithelial cells (Example II-52, Table II-30); details: GFP-labelled complex, epithelial cells pretreated 4 hours, n=3
Procedure: The fatty acids were combined with water-soluble small molecules to form a complex, which were labeled with GFP fluorescence to detect cell membrane fluorescence. […] After the cells were stably adhered, the water-soluble fatty acid complexes in the following table were added to the cell culture medium. […] The medium with the drug was pipetted and replaced with normal DMEM medium. […] The green fluorescence intensity was analyzed by imageJ (see Table II-30, n=3).

Hela cells = experiment: Cell membrane fluidity (Laurdan fluorescence recovery) in Hela cells
[1] = tested on: SARS-CoV-2 pseudovirus (B.1.526.2)
293T cells = experiment: Cellular phagocytosis of DiD-loaded lipid vesicles (nano-drugs) by 293T cells (Example II-51, Table II-29); details: 293T cells pretreated 4 h, DiD lipid vesicles 2 h, n=3, untreated control 226.46 ± 1.26

## NC(CCCCNC(=O)CCCCCCCCCCCCCCCCCCC(=O)O)C(=O)O (stereo not drawn) [Lys-eicosanedioic acid]
Human pancreatic β-cells; 2 nM
  Insulin: 0.34 ng/mL
Human pancreatic β-cells; 5 nM
  Insulin: 0.35 ng/mL
Human pancreatic β-cells; 10 nM
  Insulin: 0.42 ng/mL
Human pancreatic β-cells; 50 nM
  Insulin: 0.48 ng/mL
Human pancreatic β-cells; 50 μM
  Insulin: 1.44 ng/mL
Human pancreatic β-cells; 100 μM
  Insulin: 1.48 ng/mL

## CCCCCCCCCC(=O)NCCCCC(N)C(=O)O (stereo not drawn) [Lys-n-decanoic acid]
Human pancreatic β-cells; 2 nM
  Insulin: 0.45 ng/mL
Human pancreatic β-cells; 5 nM
  Insulin: 0.47 ng/mL
Human pancreatic β-cells; 10 nM
  Insulin: 0.56 ng/mL
Human pancreatic β-cells; 50 nM
  Insulin: 0.60 ng/mL
Human pancreatic β-cells; 50 μM
  Insulin: 1.53 ng/mL
Human pancreatic β-cells; 100 μM
  Insulin: 1.63 ng/mL

## CCCCCCCCCCCCCCCCCC(=O)NCCCCC(N)C(=O)O (stereo not drawn) [Lys-stearic acid]
Epithelial cells; 0 Hours after medium replaced
  Mean fluorescence intensity: 105.3 ± 5.2
Epithelial cells; 2 Hours after medium replaced
  Mean fluorescence intensity: 103.4 ± 2.7
Epithelial cells; 4 Hours after medium replaced
  Mean fluorescence intensity: 98.3 ± 2.5
Epithelial cells; 8 Hours after medium replaced
  Mean fluorescence intensity: 56.5 ± 5.6
Epithelial cells; 12 Hours after medium replaced
  Mean fluorescence intensity: 46.7 ± 8.5
Epithelial cells; 24 Hours after medium replaced
  Mean fluorescence intensity: 39.0 ± 5.3
Hela cells; 2 nM, 20 s
  Fluorescence recovery rate %: 64.38%
Hela cells; 2 nM, 40 s
  Fluorescence recovery rate %: 65.33%
Hela cells; 2 nM, 60 s
  Fluorescence recovery rate %: 66.78%
Hela cells; 2 nM, 80 s
  Fluorescence recovery rate %: 65.32%
Hela cells; 5 nM, 20 s
  Fluorescence recovery rate %: 63.98%
Hela cells; 5 nM, 40 s
  Fluorescence recovery rate %: 64.03%
Hela cells; 5 nM, 60 s
  Fluorescence recovery rate %: 64.52%
Hela cells; 5 nM, 80 s
  Fluorescence recovery rate %: 64.77%
Hela cells; 10 nM, 20 s
  Fluorescence recovery rate %: 64.41%
Hela cells; 10 nM, 40 s
  Fluorescence recovery rate %: 64.81%
Hela cells; 10 nM, 60 s
  Fluorescence recovery rate %: 65.40%
Hela cells; 10 nM, 80 s
  Fluorescence recovery rate %: 65.86%
Hela cells; 50 nM, 20 s
  Fluorescence recovery rate %: 65.08%
Hela cells; 50 nM, 40 s
  Fluorescence recovery rate %: 65.47%
Hela cells; 50 nM, 60 s
  Fluorescence recovery rate %: 65.55%
Hela cells; 50 nM, 80 s
  Fluorescence recovery rate %: 66.26%
Hela cells; 50 μM, 20 s
  Fluorescence recovery rate %: 65.84%
Hela cells; 50 μM, 40 s
  Fluorescence recovery rate %: 71.51%
Hela cells; 50 μM, 60 s
  Fluorescence recovery rate %: 75.97%
Hela cells; 50 μM, 80 s
  Fluorescence recovery rate %: 80.33%
Hela cells; 100 μM, 20 s
  Fluorescence recovery rate %: 64.77%
Hela cells; 100 μM, 40 s
  Fluorescence recovery rate %: 70.54%
Hela cells; 100 μM, 60 s
  Fluorescence recovery rate %: 73.46%
Hela cells; 100 μM, 80 s
  Fluorescence recovery rate %: 78.44%

## CCCC(=O)OCC(N)C(=O)O (stereo not drawn) [Ser-n-butyric acid]
Human pancreatic β-cells; 2 nM
  Insulin: 0.41 ng/mL
Human pancreatic β-cells; 5 nM
  Insulin: 0.39 ng/mL
Human pancreatic β-cells; 10 nM
  Insulin: 0.49 ng/mL
Human pancreatic β-cells; 50 nM
  Insulin: 0.53 ng/mL
Human pancreatic β-cells; 50 μM
  Insulin: 1.42 ng/mL
Human pancreatic β-cells; 100 μM
  Insulin: 1.51 ng/mL

## CCCCCCCCCCCCCCCCCC(=O)OCC(N)C(=O)O (stereo not drawn) [Ser-stearic acid]
Human pancreatic β-cells; 2 nM
  Insulin: 0.28 ng/mL
Human pancreatic β-cells; 5 nM
  Insulin: 0.30 ng/mL
Human pancreatic β-cells; 10 nM
  Insulin: 0.41 ng/mL
Human pancreatic β-cells; 50 nM
  Insulin: 0.48 ng/mL
Human pancreatic β-cells; 50 μM
  Insulin: 1.38 ng/mL
Human pancreatic β-cells; 100 μM
  Insulin: 1.41 ng/mL

## CCCCCCCCCCCCCCCCCCCC(=O)OC(C)C(N)C(=O)O (stereo not drawn) [Thr-arachidic acid]
Epithelial cells; 0 Hours after medium replaced
  Mean fluorescence intensity: 109.4 ± 3.7
Epithelial cells; 2 Hours after medium replaced
  Mean fluorescence intensity: 104.4 ± 5.4
Epithelial cells; 4 Hours after medium replaced
  Mean fluorescence intensity: 91.5 ± 6.7
Epithelial cells; 8 Hours after medium replaced
  Mean fluorescence intensity: 54.3 ± 7.2
Epithelial cells; 12 Hours after medium replaced
  Mean fluorescence intensity: 41.4 ± 3.4
Epithelial cells; 24 Hours after medium replaced
  Mean fluorescence intensity: 34.2 ± 5.2
Human pancreatic β-cells; 2 nM
  Insulin: 0.32 ng/mL
Human pancreatic β-cells; 5 nM
  Insulin: 0.31 ng/mL
Human pancreatic β-cells; 10 nM
  Insulin: 0.43 ng/mL
Human pancreatic β-cells; 50 nM
  Insulin: 0.51 ng/mL
Human pancreatic β-cells; 50 μM
  Insulin: 1.46 ng/mL
Human pancreatic β-cells; 100 μM
  Insulin: 1.42 ng/mL

## CCCCCC(=O)OC(C)C(N)C(=O)O (stereo not drawn) [Thr-n-hexanoic acid]
Human pancreatic β-cells; 2 nM
  Insulin: 0.38 ng/mL
Human pancreatic β-cells; 5 nM
  Insulin: 0.37 ng/mL
Human pancreatic β-cells; 10 nM
  Insulin: 0.47 ng/mL
Human pancreatic β-cells; 50 nM
  Insulin: 0.54 ng/mL
Human pancreatic β-cells; 50 μM
  Insulin: 1.41 ng/mL
Human pancreatic β-cells; 100 μM
  Insulin: 1.46 ng/mL

## CCCCCC=CCC=CCCCCCCCC(=O)OC(C)C(N)C(=O)O (stereo not drawn) [Threonine-LA]
[1]; 2 nM, n=3
  Inhibition rate (%): 55.64 ± 1.68%
[1]; 5 nM, n=3
  Inhibition rate (%): 71.66 ± 2.98%
[1]; 10 nM, n=3
  Inhibition rate (%): 80.84 ± 4.59%
[1]; 50 nM, n=3
  Inhibition rate (%): 79.83 ± 8.55%
[1]; 100 nM, n=3
  Inhibition rate (%): 75.99 ± 2.66%
[1]; 1 μM, n=3
  Inhibition rate (%): -82.33 ± 0.87%
[1]; 10 μM, n=3
  Inhibition rate (%): -124.16 ± 0.47%
[1]; 50 μM, n=3
  Inhibition rate (%): 71.36 ± 0.48%
[1]; 100 μM, n=3
  Inhibition rate (%): 87.98 ± 0.55%
293T cells; 2 nM
  Fluorescence intensity: 100.46 ± 4.23
293T cells; 5 nM
  Fluorescence intensity: 64.18 ± 0.47
293T cells; 10 nM
  Fluorescence intensity: 43.39 ± 0.55
293T cells; 50 nM
  Fluorescence intensity: 45.68 ± 0.23
293T cells; 100 nM
  Fluorescence intensity: 54.37 ± 0.63
293T cells; 1 uM
  Fluorescence intensity: 412.90 ± 0.43
293T cells; 10 uM
  Fluorescence intensity: 507.63 ± 0.23
293T cells; 50 uM
  Fluorescence intensity: 64.86 ± 0.19
293T cells; 100 uM
  Fluorescence intensity: 27.22 ± 0.16

## Adenosine monophosphate-lauroic acid
Human pancreatic β-cells; 2 nM
  Insulin: 0.37 ng/mL
Human pancreatic β-cells; 5 nM
  Insulin: 0.38 ng/mL
Human pancreatic β-cells; 10 nM
  Insulin: 0.43 ng/mL
Human pancreatic β-cells; 50 nM
  Insulin: 0.49 ng/mL
Human pancreatic β-cells; 50 μM
  Insulin: 1.49 ng/mL
Human pancreatic β-cells; 100 μM
  Insulin: 1.53 ng/mL

## Glucose-docosanedioic acid
Human pancreatic β-cells; 2 nM
  Insulin: 0.25 ng/mL
Human pancreatic β-cells; 5 nM
  Insulin: 0.27 ng/mL
Human pancreatic β-cells; 10 nM
  Insulin: 0.41 ng/mL
Human pancreatic β-cells; 50 nM
  Insulin: 0.50 ng/mL
Human pancreatic β-cells; 50 μM
  Insulin: 1.41 ng/mL
Human pancreatic β-cells; 100 μM
  Insulin: 1.46 ng/mL

## Glucose-pentadecanedioic acid
Human pancreatic β-cells; 2 nM
  Insulin: 0.22 ng/mL
Human pancreatic β-cells; 5 nM
  Insulin: 0.23 ng/mL
Human pancreatic β-cells; 10 nM
  Insulin: 0.36 ng/mL
Human pancreatic β-cells; 50 nM
  Insulin: 0.43 ng/mL
Human pancreatic β-cells; 50 μM
  Insulin: 1.48 ng/mL
Human pancreatic β-cells; 100 μM
  Insulin: 1.52 ng/mL

## Uridine diphosphate glucose-dodecanoic acid [UDPGA-C12]
[1]; 0.002 µM
  Inhibition rate (%): 56.54 ± 3.94%
[1]; 0.005 µM
  Inhibition rate (%): 79.66 ± 3.69%
[1]; 0.01 µM
  Inhibition rate (%): 91.38 ± 3.36%
[1]; 0.05 µM
  Inhibition rate (%): 81.33 ± 1.25%
[1]; 0.1 µM
  Inhibition rate (%): 87.47 ± 8.23%
[1]; 1 µM
  Inhibition rate (%): -92.93 ± 0.58%
[1]; 10 µM
  Inhibition rate (%): 73.16 ± 0.59%
[1]; 50 µM
  Inhibition rate (%): 67.37 ± 0.54%
[1]; 100 µM
  Inhibition rate (%): 53.98 ± 0.78%

## Uridine diphosphate glucose-oleic acid [UDPGA-OA]
[1]; 0.002 µM
  Inhibition rate (%): 44.54 ± 1.23%
[1]; 0.005 µM
  Inhibition rate (%): 50.06 ± 1.05%
[1]; 0.01 µM
  Inhibition rate (%): 54.94 ± 1.84%
[1]; 0.05 µM
  Inhibition rate (%): 67.33 ± 1.00%
[1]; 0.1 µM
  Inhibition rate (%): 84.96 ± 4.55%
[1]; 1 µM
  Inhibition rate (%): -82.33 ± 0.53%
[1]; 10 µM
  Inhibition rate (%): -54.00 ± 0.23%
[1]; 50 µM
  Inhibition rate (%): 73.06 ± 0.26%
[1]; 100 µM
  Inhibition rate (%): 83.61 ± 0.88%

## Uridine diphosphate glucose-pentacosanoic acid [UDPGA-C25]
[1]; 0.002 µM
  Inhibition rate (%): 46.04 ± 0.98%
[1]; 0.005 µM
  Inhibition rate (%): 49.66 ± 0.58%
[1]; 0.01 µM
  Inhibition rate (%): 48.66 ± 1.59%
[1]; 0.05 µM
  Inhibition rate (%): 59.03 ± 1.25%
[1]; 0.1 µM
  Inhibition rate (%): 88.64 ± 4.53%
[1]; 1 µM
  Inhibition rate (%): -12.03 ± 0.83%
[1]; 10 µM
  Inhibition rate (%): -64.26 ± 0.59%
[1]; 50 µM
  Inhibition rate (%): 71.36 ± 0.88%
[1]; 100 µM
  Inhibition rate (%): 92.33 ± 0.73%

## cholylglycine-Ricinoleic acid [cholylglycine-C18-1-OH]
[1]; 2 nM, n=3
  Inhibition rate (%): 72.59 ± 5.58%
[1]; 5 nM, n=3
  Inhibition rate (%): 74.66 ± 1.25%
[1]; 10 nM, n=3
  Inhibition rate (%): 78.34 ± 2.55%
[1]; 50 nM, n=3
  Inhibition rate (%): 89.33 ± 2.25%
[1]; 100 nM, n=3
  Inhibition rate (%): 88.76 ± 4.58%
[1]; 1 μM, n=3
  Inhibition rate (%): -32.33 ± 0.57%
[1]; 10 μM, n=3
  Inhibition rate (%): -54.26 ± 0.88%
[1]; 50 μM, n=3
  Inhibition rate (%): 71.09 ± 0.58%
[1]; 100 μM, n=3
  Inhibition rate (%): 73.68 ± 0.71%

## cholyltaurine-tetradecanoic acid [cholyltaurine-C14]
[1]; 2 nM, n=3
  Inhibition rate (%): 70.54 ± 3.20%
[1]; 5 nM, n=3
  Inhibition rate (%): 79.66 ± 5.66%
[1]; 10 nM, n=3
  Inhibition rate (%): 81.84 ± 4.57%
[1]; 50 nM, n=3
  Inhibition rate (%): 80.88 ± 1.22%
[1]; 100 nM, n=3
  Inhibition rate (%): 79.06 ± 2.22%
[1]; 1 μM, n=3
  Inhibition rate (%): -94.23 ± 5.55%
[1]; 10 μM, n=3
  Inhibition rate (%): 4.26 ± 0.95%
[1]; 50 μM, n=3
  Inhibition rate (%): 67.55 ± 0.25%
[1]; 100 μM, n=3
  Inhibition rate (%): 58.98 ± 0.44%
